Laboratory results: ChEMBL document CHEMBL1133052, “Androsterone 3beta-substituted derivatives as inhibitors of type 3 17beta-hydroxysteroid dehydrogenase” (Bioorg Med Chem Lett, 2000)

Experiments:
Type in all cases: cell-based
[1] = target: T1, 17-beta-hydroxysteroid dehydrogenase type 3 (Homo sapiens) (UniProt P37058); experiment: Percent inhibition against type-3 17-beta-HSD expressed in HEK293 cells at 0.3 uM
T1 sequence (whole entry): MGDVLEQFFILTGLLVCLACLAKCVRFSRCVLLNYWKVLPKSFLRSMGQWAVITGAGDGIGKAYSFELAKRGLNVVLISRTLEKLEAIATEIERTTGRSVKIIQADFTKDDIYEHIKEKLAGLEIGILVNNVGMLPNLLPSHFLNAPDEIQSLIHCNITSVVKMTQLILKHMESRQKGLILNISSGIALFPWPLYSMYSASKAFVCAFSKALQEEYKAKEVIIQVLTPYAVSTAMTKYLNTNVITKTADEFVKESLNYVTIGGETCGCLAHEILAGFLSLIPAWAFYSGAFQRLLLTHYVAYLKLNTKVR

[2] = target: T2, 17-beta-hydroxysteroid dehydrogenase type 3 (Homo sapiens, UniProt P37058); experiment: Inhibitory concentration against type-3 17-beta-HSD expressed in HEK293 cells
T2 sequence (P37058 whole entry): T1 sequence (whole entry)

[3] = target: T1, 17-beta-hydroxysteroid dehydrogenase type 3 (Homo sapiens); experiment: Percent inhibition against type-3 17-beta-HSD expressed in HEK293 cells at 3 uM

| Compound | inhibition [1] | IC50 [2] | inhibition [3] |
| --- | --- | --- | --- |
| C[C@]12CC[C@](O)(CCC3CCCCC3)CC1CC[C@@H]1[C@@H]2CC[C@]2(C)C(=O)CC[C@@H]12 (stereo partly drawn) | 92% | 60 nM | 93% |
| CCCCCC[C@@]1(O)CC[C@@]2(C)C(CC[C@@H]3[C@@H]2CC[C@]2(C)C(=O)CC[C@@H]32)C1 (stereo partly drawn) | 93% | 100 nM | 96% |
| CCCCCCCC[C@@]1(O)CC[C@@]2(C)C(CC[C@@H]3[C@@H]2CC[C@]2(C)C(=O)CC[C@@H]32)C1 (stereo partly drawn) | 88% | 147 nM | 92% |
| CCC[C@@]1(O)CC[C@@]2(C)C(CC[C@@H]3[C@@H]2CC[C@]2(C)C(=O)CC[C@@H]32)C1 (stereo partly drawn) | 89% | 67 nM | 94% |
| C[C@]12CC[C@](O)(Cc3ccccc3)CC1CC[C@@H]1[C@@H]2CC[C@]2(C)C(=O)CC[C@@H]12 (stereo partly drawn) | 90% | 57 nM | 94% |
| C[C@]12CC[C@@H](O)C[C@H]1CC[C@@H]1[C@@H]2CC[C@]2(C)C(=O)CC[C@@H]12 [ETIOCHOLANOLONE] | 50% | 330 nM | 88% |
| C[C@@]1(O)CC[C@@]2(C)C(CC[C@@H]3[C@@H]2CC[C@]2(C)C(=O)CC[C@@H]32)C1 (stereo partly drawn) | 72% | – | 93% |
| CCC(C)[C@@]1(O)CC[C@@]2(C)C(CC[C@@H]3[C@@H]2CC[C@]2(C)C(=O)CC[C@@H]32)C1 (stereo partly drawn) | 85% | 73 nM | 90% |
| C[C@]12CC[C@](O)(CCc3ccccc3)CC1CC[C@@H]1[C@@H]2CC[C@]2(C)C(=O)CC[C@@H]12 (stereo partly drawn) | 93% | 99 nM | 93% |
| C[C@]12CCC(=O)C=C1CC[C@@H]1[C@@H]2CC[C@]2(C)C(=O)CC[C@@H]12 [ANDROSTENEDIONE] | 24% | 758 nM | 78% |
| C[C@]12CC[C@](O)(c3ccccc3)CC1CC[C@@H]1[C@@H]2CC[C@]2(C)C(=O)CC[C@@H]12 (stereo partly drawn) | 88% | 81 nM | 95% |
| C[C@]12CC[C@](O)(C3CCCCC3)CC1CC[C@@H]1[C@@H]2CC[C@]2(C)C(=O)CC[C@@H]12 (stereo partly drawn) | 88% | 97 nM | 93% |
| C[C@]12CC[C@](O)(CC3CCCCC3)CC1CC[C@@H]1[C@@H]2CC[C@]2(C)C(=O)CC[C@@H]12 (stereo partly drawn) | 93% | 87 nM | 95% |
